Reference: patent US20060166989A1, “2-naphthamide derivatives” (Bayer Healthcare AG, priority 2002, published 2006)

How the values were obtained:
IP receptor = target: T1, IP receptor (Homo sapiens, UniProt P43119); test: Iloprost-induced cAMP production assay in HEL cells (Assay 2); format: cell-based; details: read-out: Activity grade assay 2
T1 construct: HEL cells were collected with centrifugation and washed with cAMP assay buffer; host or cells: HEL 92.1.7 human erythroleukemia cells
Procedure: [Iloprost-Induced cAMP Production Assay in HEL Cells] (Assay 2)
HEL cells were collected with centrifugation and washed with cAMP assay buffer (CAB: Hank's balanced salt solution, 17 mM Hepes, 0.1% bovine serum albumin, 1 mM IBMX, 0.4% DMSO, and 1 mM L-ascorbic acid sodium salt (pH 7.4)). Cells were suspended at the density of 2.5×10^5 cells/ml in CAB, and twenty thousand cells in 80 μl aliquot of cell suspension were put in a well of 96 well plate (Falcon). Then, 10 μl of compound solution diluted with 1% DMSO in CAB or buffer alone was added. The plate was incubated at 37° C. for 30 min. Then, another 10 μl containing 100 nM iloprost in CAB or buffer alone was added and further incubated at 37° C. for 30 min. cAMP content in the well was measured by a cAMP ELISA kit (Applied Biosystems, USA).
Results of Iloprost-induced cAMP production assay (Assay2) are shown in Examples and tables of the Examples below. For practical reasons, the compounds are grouped in three classes of activity as follows: A(=or<)0.1μM<B(=or<)1μM<C

T1 sequence (P43119 whole entry): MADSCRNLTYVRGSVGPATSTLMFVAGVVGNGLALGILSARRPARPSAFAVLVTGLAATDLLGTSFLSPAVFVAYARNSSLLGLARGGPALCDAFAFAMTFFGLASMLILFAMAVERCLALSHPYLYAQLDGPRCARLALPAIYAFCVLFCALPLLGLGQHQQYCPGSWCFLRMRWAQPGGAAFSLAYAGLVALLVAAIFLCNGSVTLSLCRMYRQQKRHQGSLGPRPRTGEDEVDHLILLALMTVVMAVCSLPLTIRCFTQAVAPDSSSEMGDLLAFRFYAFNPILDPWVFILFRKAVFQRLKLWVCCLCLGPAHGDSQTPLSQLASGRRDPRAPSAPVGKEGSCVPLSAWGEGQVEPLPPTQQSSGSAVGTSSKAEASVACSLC

| SMILES | IC50 (IP receptor) [nM] | melting point |
| --- | --- | --- |
| O=C(NC(Cc1ccc(Br)cc1)C(=O)O)c1ccc2cc(OCc3ccccc3)ccc2c1 (stereo not drawn) [Example 1-45] | < 100 | 219 to 220 °C |
| O=C(NC(Cc1cccc(O)c1)C(=O)O)c1ccc2cc(OCc3ccccc3)ccc2c1 (stereo not drawn) [Example 1-47] | < 100 | 214 °C |
| O=C(NC(Cc1cccc2ccccc12)C(=O)O)c1ccc2cc(OCc3ccccc3)ccc2c1 (stereo not drawn) [Example 1-48] | < 100 | 218 °C |
| O=C(NC(Cc1ccccc1F)C(=O)O)c1ccc2cc(OCc3ccccc3)ccc2c1 (stereo not drawn) [Example 1-50] | < 100 | 211 to 213 °C |
| O=C(NC(Cc1ccccc1)C(=O)O)c1ccc2cc(OCc3cccc(Br)c3)ccc2c1 (stereo not drawn) [Example 1-52] | < 100 | 194 °C |
| Cc1ccccc1COc1ccc2cc(C(=O)NC(Cc3ccccc3)C(=O)O)ccc2c1 (stereo not drawn) [Example 1-54] | < 100 | 204 °C |
| Cc1ccc(COc2ccc3cc(C(=O)NC(Cc4ccccc4)C(=O)O)ccc3c2)cc1 (stereo not drawn) [Example 1-56] | 100 to 1000 | 212 °C |
| O=C(NC(Cc1ccccc1)C(=O)O)c1ccc2cc(OCc3ccc(F)cc3F)ccc2c1 (stereo not drawn) [Example 1-59] | 100 to 1000 | 199 °C |
| CC(Oc1ccc2cc(C(=O)NC(Cc3ccccc3)C(=O)O)ccc2c1)c1ccccc1 (stereo not drawn) [Example 1-60] | 100 to 1000 | 170 to 172 °C |
| O=C(NC(Cc1ccccc1)C(=O)O)c1ccc2cc(OCc3cccc([N+](=O)[O-])c3)ccc2c1 (stereo not drawn) [Example 1-61] | < 100 | 193 to 194 °C |
| Cc1nc(COc2ccc3cc(C(=O)NC(Cc4ccccc4)C(=O)O)ccc3c2)cs1 (stereo not drawn) [Example 1-62] | 100 to 1000 | 208 °C |
| O=C(NC(Cc1ccccc1)C(=O)O)c1ccc2cc(OCCCc3ccccc3)ccc2c1 (stereo not drawn) [Example 1-64] | 100 to 1000 | 182 °C |
| CCCCOc1ccc2cc(C(=O)NC(Cc3ccccc3)C(=O)O)ccc2c1 (stereo not drawn) [Example 1-65] | 100 to 1000 | 209 °C |
| Nc1ccc(CC(NC(=O)c2ccc3cc(OCc4ccccc4)ccc3c2)C(=O)O)cc1 (stereo not drawn) [Example 1-66] | > 1000 | 238 to 240 °C |
| CS(=O)(=O)Nc1ccc(CC(NC(=O)c2ccc3cc(OCc4ccccc4)ccc3c2)C(=O)O)cc1 (stereo not drawn) [Example 1-68] | > 1000 | 236 to 237 °C |

Results, then the compound that gave them:

| IC50 (IP receptor) [nM] | melting point | SMILES |
| --- | --- | --- |
| < 100 | 227 to 228 °C | O=C(NC(Cc1ccc([N+](=O)[O-])cc1)C(=O)O)c1ccc2cc(OCc3ccccc3)ccc2c1 (stereo not drawn) [Example 1-46] |
| < 100 | 261 to 262 °C (dec.) | O=C(NC(Cc1c[nH]c2ccc(O)cc12)C(=O)O)c1ccc2cc(OCc3ccccc3)ccc2c1 (stereo not drawn) [Example 1-49] |
| < 100 | 206 to 207 °C | O=C(NC(Cc1ccccc1)C(=O)O)c1ccc2cc(OCc3ccccc3Br)ccc2c1 (stereo not drawn) [Example 1-51] |
| > 1000 | 232 °C | O=C(NC(Cc1ccccc1)C(=O)O)c1ccc2cc(OCc3ccc(Br)cc3)ccc2c1 (stereo not drawn) [Example 1-53] |
| < 100 | 184 to 185 °C | Cc1cccc(COc2ccc3cc(C(=O)NC(Cc4ccccc4)C(=O)O)ccc3c2)c1 (stereo not drawn) [Example 1-55] |
| 100 to 1000 | 167 to 168 °C | Cc1cc(C)cc(COc2ccc3cc(C(=O)NC(Cc4ccccc4)C(=O)O)ccc3c2)c1 (stereo not drawn) [Example 1-57] |
| 100 to 1000 | 189 °C | Cc1ccc(COc2ccc3cc(C(=O)NC(Cc4ccccc4)C(=O)O)ccc3c2)cc1C (stereo not drawn) [Example 1-58] |
| 100 to 1000 | 195 °C | O=C(NC(Cc1ccccc1)C(=O)O)c1ccc2cc(OCCCn3cccc3)ccc2c1 (stereo not drawn) [Example 1-63] |
| < 100 | 226 to 227 °C | O=C(NC(Cc1ccc2ccccc2c1)C(=O)O)c1ccc2cc(OCc3ccccc3)ccc2c1 (stereo not drawn) [Example 1-67] |
